How the values were obtained:
[1] = test system: Occludin, Villin, TJP1 and TJP2; test: Tight junction protein gene expression in HT29-mtx cells (qRT-PCR); format: cell-based; settings: 2 h incubation
Description: The ability of MRx0029 to cause any intestinal barrier dysfunction was investigated. HT29-mtx epithelial, mucin-producing cell monolayers were used as an in vitro model to evaluate gut barrier disruption and immune stimulation following treatment with MRx0029.
Total RNA was extracted using the RNeasy mini kit (Qiagen, Manchester, JUK) according to the manufacturer's instructions, and the RNA concentration determined by absorbance at 260/280 nm using a spectrophotometer (nano-Drop ND-1000; Thermo Scientific, Wilmington, Del.). For mRNA expression analysis, cDNA was prepared from total RNA using the High-Capacity cDNA reverse transcription kit (Applied Biosystems, UK) according to the manufacturer's instructions. The reverse transcription reactions were performed in a Thermo cycler (Biometra, Germany) at 25° C. for 10 min, 37° C. for 120 min, and 85° C. for 5 min, hold on at 4° C. Resulting cDNA was amplified in duplicates by the SYBR-Green PCR assay, and products were detected on QuantStudio 6 flex real-time PCR machine (Applied Biosystems, UK) using a standardised profile (initial denaturation of 95° C. for 10 minutes, followed by 40 cycles of 15 seconds of denaturation at 95° C. and 60 seconds of annealing/extension at 60/65° C., depending on the primers. A dissociation stage was added after the 40 cycles to generate a melting curve. Analysis was performed using the Applied Biosystems QuantStudio Real-Time PCR Software v1.2.
RNA was isolated and Quantitative RT-PCR (qRT-PCR) analysis was performed to characterize the changes in gene expression of tight junction proteins during incubation with MRx0029. The administration of MRx0029 enhanced Occludin, Villin, Tight Junction Protein 1 and 2 (respectively TJP1 and TJP2) mRNA expression after 2 h incubation (FIG. 14B).

TJP1 and Occludin = test: Ex vivo gene expression in the gut of mice fed with MRx0029; settings: colon region of the murine intestine
Experimental: The in vitro results were compared with data from the ex vivo parallel analysis on the gut of mice fed with MRx0029. Gene expression of TJP1 and Occludin was quantified in the colon and ileum. […] Animals were allowed to habituate to their holding room for one week after arrival into the animal unit. They receive oral gavage (200 μL dose) of live biotherapeutics at a dose of 1×10^9 CFU for 6 consecutive days between 15:00 and 17:00. On day 7, the animals are decapitated, and tissues are harvested for experimentation. Animals were sacrificed in a random fashion regarding treatment and testing condition; sampling occurred between 9.00 a.m. and 2:30 p.m. Trunk blood was collected in potassium EDTA (Ethylene Diamine Tetra Acetic Acid) tubes and spun for 15 min at 4000 g. Plasma was isolated and stored at −80° C. for further analysis. The brain was quickly excised, dissected and each brain region was snap-frozen on dry ice and stored at −80° C. for further analysis. Spleen was removed, collected in 5 mL RPMI media (with L-glutamine and sodium bicarbonate, R8758 Sigma+10% FBS (F7524, Sigma)+1% Pen/Strep (P4333, Sigma)) and processed immediately after culls for ex-vivo immune stimulation. […]

[2] = test system: ERK signalling (phosphorylated ERK1 and 2/total ERK); test: ERK signalling in HT29 cell line (Western blot); format: cell-based; settings: HT29 (V600E oncogenic mutation)
Experimental: Following 24 h treatment with the appropriate drugs either in presence of 10% bacterial supernatant or absence (YCFA+), protein extracts were obtained by lysing cells in RIPA buffer (R0278; Sigma Aldrich) supplemented with protease inhibitors (cOmplete Protease Inhibitor Cocktail Tablets; Roche, Switzerland) and 1 mM/L sodium orthovanadate, 0.5 mM/L PMSF. Protein quantification was done by the BCA protein assay. Equal amounts of total protein (20 μg/lane) were then separated by SDS-PAGE on 4-15% gradient gel (BioRad) and transferred to polyvinylidene difluoride (PVDF) membranes (Thermo Fisher Scientific, Loughborough). […]
Proteins of interest were detected with the appropriate HRP-conjugated secondary antibody (1:10,000, Thermo Fisher Scientific, Loughborough), developed with the ECL Western blotting Super Signal PicoPlus substrate (34577; Thermo Fisher Scientific, Loughborough), and visualised in Chemidoc XRS Imager (BioRad).
The effects of the following treatments were assessed on the HT29 colorectal cancer cell line (V600E oncogenic mutation in BRAF): (1) MRx0029; (2) Vemurafenib (VEMU) in YFCA+ medium; (3) VEMU and MRx0029; (4) Azacytidine-C (Aza-c) in YCFA+ medium; (5) Aza-c and MRx0029; (6) VEMU, Aza-c and MRx0029.

[3] = test system: neuron specific enolase (NSE)/enolase 2; test: Enolase 2 expression in SH-SY5Y cells (qPCR); format: cell-based; settings: 10% bacterial supernatants 17 h, vs YCFA+ culture control
Experimental: SH-SY5Y were plated in 6 well plates at a density of 0.5×10^6 cells. After 24 h, cells were treated in differentiation medium (growth medium containing 1% FBS) with 10% bacterial supernatants or YCFA+ for 17 h. Cells were collected, and total RNA was isolated according to the RNeasy mini kit protocol (Qiagen). cDNA was made using the High Capacity cDNA reverse transcription kit (Applied Biosystems). Gene expression was measured by qPCR. GAPDH was used as internal control. Fold change was calculated according to the 2^(−ΔΔct) method. Primer sets used are listed as SEQ ID NOs: 2, 3, 13 and 14.

[4] = test system: neuron specific enolase (NSE)/enolase 2; test: Suppression of neuron specific enolase (NSE)/enolase 2 (Example 18); format: cell-based; settings: FIG. 57

Megasphaera massiliensis MRx0029
Occludin mRNA expression [1]: enhanced | TJP1 mRNA expression [1]: enhanced | TJP2 mRNA expression [1]: enhanced | Villin mRNA expression [1]: enhanced | TJP1 gene expression in the colon (TJP1 and Occludin): significantly up-regulate | ERK signalling [2]: inhibiting ERK signalling | Enolase 2 expression [3]: statistically-significant effect of suppressing | neuron specific enolase (NSE)/enolase 2 [4]: statistically-significant effect suppressing

Source: patent publication US11419902B2, “Compositions comprising bacterial strains” (4D Pharma Research Limited, priority 2018, dated 2022)
